We go through 13 compounds from patent US8552208B2, “Analogs of tetramic acid” (University of Tennesseee Research Foundation, priority 2007, dated 2013).

The structures appear in SMILES notation. Values after ≈ are worked out from the molar mass of the structure shown. Read-outs that look alike come from different tables or passages of the source.

Data set [1] has as its system Mycobacterium tuberculosis H37 Rv. Kind of data set: Antibacterial activity assay (MIC, broth dilution). The data set is classed as cell-based. As to conditions: H37RV, 168 h; Mycobacterium tuberculosis H37 Rv; […]; read-out: MIC, TB.
For data set [2], the system named is Bacillus anthracis Sterne 34F2. The data set is described as follows: microbe, parasite or virus in culture. The data set is classed as cell-based. The settings on record: STERNE34F2, read-out: MIC, BA.
For data set [3], the system named is Bacillus subtilis ATCC 23857. Kind of data set: Antibacterial activity assay (MIC, broth dilution). The data set is classed as cell-based. As to conditions: ATCC23857; Bacillus subtilis ATCC 23857; read-out: MIC, BS.
The test system of data set [4] is Streptococcus pneumoniae DAW30EC. The data set is described as follows: Antibacterial activity assay (MIC, broth dilution). As to conditions: Streptococcus pneumoniae DAW30EC; read-out: MIC, SPn. The data set is classed as cell-based.
In data set [5] the test system is Enterococcus faecalis ATCC 33186. Kind of data set: Antibacterial activity assay (MIC, broth dilution). It is filed as cell-based. The settings on record: ATCC33186; Enterococcus faecalis ATCC 33186; read-out: MIC, EF.
In data set [6] the test system is Methicillin Resistant Staphylococcus aureus ATCC 33591. The data set is described as follows: Antibacterial activity assay (MIC, broth dilution). It is filed as cell-based. As to conditions: ATCC 33591 / MRSA, read-out: MIC, MRSA.
The test system of data set [7] is Methicillin sensitive Staphylococcus aureus 8325 ATCC 35556. The data set is described as follows: Antibacterial activity assay (MIC, broth dilution). It is filed as cell-based. The settings on record: ATCC 35556 / MSSA; Methicillin sensitive Staphylococcus aureus 8325 ATCC 35556; read-out: MIC, MSSA.
Data set [8] relates to Propionibacterium acnes ATCC 6919. Kind of data set: Antibacterial activity assay (MIC, broth dilution). The data set is classed as cell-based. As to conditions: Cutibacterium acnes, ATCC6919; Propionibacterium acnes ATCC 6919; read-out: MIC, PA.
Data set [9] concerns Streptococcus pyogenes ATCC 700294. Kind of data set: Antibacterial activity assay (MIC, broth dilution). It is filed as cell-based. The settings on record: ATCC700294; Streptococcus pyogenes ATCC 700294; read-out: MIC, SP.
The nature of another data set: Cytotoxicity assay (MTT). The data set is classed as cell-based, monkey. As to conditions: monkey, Vero cells, 72 hours, MTT, read-out: IC50 (Cytotoxicity): Concentration which reduces viability of Vero kidney cells by 50%. The method, then: (§1) Cytotoxicity assays of drugs of Formula I of Example 3 and of Formula II of Example 5 were performed using the Vero monkey kidney cell line (ATCC, CCL-81). Vero cells were grown in tissue culture flasks in Dulbecco's Modified Eagle's Medium (ATCC) supplemented with 10% fetal bovine serum and maintained in a humidified incubator (37° C., 5% CO2). Cells were removed with a cell scraper, collected by centrifugation and then suspended in fresh medium at ˜10^6 cells/mL. The cell suspensions were dispensed into 96-well microtiter plates (100 μl/well) and incubated for 18 hours at 37° C. before being used for cytotoxicity assays. Test compounds were subsequently added at concentrations ranging from 400-0.024 μg/mL and 0.1% vol/vol of Triton-X 100, which causes 100% death of cells, was included as a control. After incubating cells and compounds for 72 hours in humid air (37° C., 5% CO2) the cytopathic effects of compounds were determined using the MTT Cell Proliferation Assay (ATCC, Cat No. 30-1010K). The MTT solution reagent (10 μl) was added to each well and plates incubated at 37° C. until sufficient purple color development occurred in cells (3 hours). After detergent cell lysis, the purple formazan product was measured at 570 nm in a Synergy HT Biotek microplate reader. IC50 data was obtained from dose response curves plotted from percentage activity versus log10 concentration using Graphpad prism 5.

Data set [10] deals with Vero monkey kidney cell line (ATCC, CCL-81). The data set is described as follows: Cytotoxicity assay (MTT). It is filed as cell-based. The method, then:
as §1

Where [11] appears, read: IC50 divided by MIC against S. aureus 8325.
[12] abbreviates: Vero monkey kidney cells (ATCC CCL-81).

On to `N#CC1=C(O)[C@@H](Cc2ccccc2)N(Cc2ccccc2)C1=O` [Compound 12g, (R)-1,5-dibenzyl-4-hydroxy-2-oxo-2,5-dihydro-1H-pyrrole-3-carbonitrile], for which the MIC in [1], in data set [2], in [3], in data set [4], in [5] and in data set [6] was > 200 µg/mL each time. Moreover, the MIC in data set [7], in data set [8] and in data set [9] was > 200 µg/mL throughout.

On to `COc1cccc(CN2C(=O)/C(=C(/C)O)C(=O)[C@@H]2CC(C)C)c1` [Compound 13d, (S,Z)-3-(1-hydroxyethylidene)-5-isobutyl-1-(3-methoxybenzyl)pyrrolidine-2,4-dione], for which the MIC was determined as 100 µg/mL (≈ 315 µM) in [1]; 25 µg/mL (≈ 78.8 µM) in [2]; 25 µg/mL (≈ 78.8 µM) in data set [3]; 50 µg/mL (≈ 158 µM) in data set [4]; 100 µg/mL (≈ 315 µM) in data set [5]; 25 µg/mL (≈ 78.8 µM) in data set [6]. Besides, the MIC in [7] was 12.5 µg/mL (≈ 39.4 µM); in data set [8], 12.5 µg/mL (≈ 39.4 µM); in data set [9], 200 µg/mL (≈ 630 µM). For the same compound, the IC50 at 72 h in the data set “Cytotoxicity assay (MTT)” was determined as 40 µg/mL. Also, the “IC50/MIC = Selectivity (therapeutic) index” value in data set [10] (setting [11]) was 3.2.

Turning to `COc1cccc(CN2C(=O)C(C#N)=C(O)[C@@H]2CC(C)C)c1` [Compound 12d, (S)-4-hydroxy-5-isobutyl-1-(3-methoxybenzyl)-2-oxo-2,5-dihydro-1H-pyrrole-3-carbonitrile], the MIC in data set [1], in [2], in data set [3], in data set [4], in data set [5] and in data set [6] was > 200 µg/mL in each case. The MIC in [7], in data set [8] and in data set [9] was > 200 µg/mL throughout.

Regarding `CCCCCCCCCCN1C(=O)/C(=C(/C)O)C(=O)[C@H]1CC(C)C` [Compound 13o, (R,Z)-1-decyl-3-(1-hydroxyethylidene)-5-isobutylpyrrolidine-2,4-dione], the MIC in [1] was found to be 25 µg/mL (≈ 74.1 µM); in data set [2], 0.8 µg/mL (≈ 2.37 µM); in data set [3], 0.8 µg/mL (≈ 2.37 µM); in [4], 6.25 µg/mL (≈ 18.5 µM); in data set [5], 1.6 µg/mL (≈ 4.74 µM); in [6] it was 0.8 µg/mL (≈ 2.37 µM). Moreover, the figures for the MIC in data set [7], in data set [8] and in data set [9] were 0.4 µg/mL (≈ 1.19 µM), 0.8 µg/mL (≈ 2.37 µM) and 50 µg/mL (≈ 148 µM), respectively. Besides, the IC50 at 72 h in “Cytotoxicity assay (MTT)” (setting [12]) is 6.3 µg/mL. Besides, in [10] (setting [11]), the “IC50/MIC = Selectivity (therapeutic) index” value is recorded as 15.8.

For `CCCCCCCCCCN1C(=O)C(C#N)=C(O)[C@@H]1CC(C)C` [Compound 12b, (S)-1-decyl-4-hydroxy-5-isobutyl-2-oxo-2,5-dihydro-1H-pyrrole-3-carbonitrile], the MIC was found to be 3.12 µg/mL (≈ 9.74 µM) in [1]; 25 µg/mL (≈ 78 µM) in [2]; 50 µg/mL (≈ 156 µM) in data set [3]; 100 µg/mL (≈ 312 µM) in [4]; 25 µg/mL (≈ 78 µM) in [5]; 25 µg/mL (≈ 78 µM) in data set [6]. Besides, the MIC in [7] was 25 µg/mL (≈ 78 µM); in [8], 12.5 µg/mL (≈ 39 µM); in data set [9] it was > 200 µg/mL. The IC50 at 72 h in “Cytotoxicity assay (MTT)” turned out to be 152 µg/mL. Further, the “IC50/MIC = Selectivity (therapeutic) index” value in data set [10] (setting [11]) is listed as 6.1.

In the case of `CCC(C)[C@H]1C(=O)/C(=C(\C)O)C(=O)N1Cc1ccccc1` (stereo partly drawn) [Compound 13a, (S,Z)-1-benzyl-5-sec-butyl-3-(1-hydroxyethylidene)pyrrolidine-2,4-dione], the MIC in data set [1] turned out to be 50 µg/mL (≈ 174 µM); in [2], 3.12 µg/mL (≈ 10.9 µM); in [3], 25 µg/mL (≈ 87 µM); in data set [4], 50 µg/mL (≈ 174 µM); in data set [5], 6.25 µg/mL (≈ 21.7 µM); in [6] it was 6.25 µg/mL (≈ 21.7 µM). The MIC in [7] was 6.25 µg/mL (≈ 21.7 µM); in [8], 6.25 µg/mL (≈ 21.7 µM); in data set [9], > 200 µg/mL. The IC50 at 72 h in “Cytotoxicity assay (MTT)” worked out at 26.3 µg/mL. Besides, the “IC50/MIC = Selectivity (therapeutic) index” value in data set [10] (setting [11]) turned out to be 4.2.

For the compound `CCC(C)[C@H]1C(O)=C(C#N)C(=O)N1Cc1ccco1` (stereo partly drawn) [Compound 12p, (S)-5-sec-butyl-1-(furan-2-ylmethyl)-4-hydroxy-2-oxo-2,5-dihydro-1H-pyrrole-3-carbonitrile], the MIC in data set [1] is > 200 µg/mL; in data set [2] it was 3.12 µg/mL (≈ 12 µM); in [3] it was 25 µg/mL (≈ 96 µM); in [4] it was 50 µg/mL (≈ 192 µM); in data set [5], 3.12 µg/mL (≈ 12 µM); in [6] it was > 200 µg/mL. Also, the MIC is > 200 µg/mL in [7], 12.5 µg/mL (≈ 48 µM) in data set [8] and > 200 µg/mL in [9]. Moreover, the IC50 at 72 h in “Cytotoxicity assay (MTT)” turned out to be 6400 µg/mL. In addition, in [10] (IC50 divided by MIC against E. faecalis (12p only)), the “IC50/MIC = Selectivity (therapeutic) index” value came to 2049.7.

For the compound `CCN1C(=O)/C(=C(/C)O)C(=O)[C@@H]1Cc1ccccc1` [Compound 13h, (S,Z)-5-benzyl-1-ethyl-3-(1-hydroxyethylidene)pyrrolidine-2,4-dione], the MIC in data set [1] is > 200 µg/mL; in [2], 50 µg/mL (≈ 193 µM); in data set [3], > 200 µg/mL; in data set [4], > 200 µg/mL; in data set [5], > 200 µg/mL; in data set [6], > 200 µg/mL. Besides, the MIC is 200 µg/mL (≈ 771 µM) in data set [7], 100 µg/mL (≈ 386 µM) in data set [8] and > 200 µg/mL in [9].

For `C/C(O)=C1\C(=O)[C@H](Cc2ccccc2)N(Cc2ccccc2)C1=O` [Compound 13c, (S,Z)-1,5-dibenzyl-3-(1-hydroxyethylidene)pyrrolidine-2,4-dione], the MIC is > 200 µg/mL in [1]; 25 µg/mL (≈ 77.8 µM) in data set [2]; 25 µg/mL (≈ 77.8 µM) in data set [3]; 100 µg/mL (≈ 311 µM) in [4]; 100 µg/mL (≈ 311 µM) in data set [5]; 25 µg/mL (≈ 77.8 µM) in data set [6]. Besides, the MIC in [7] was 12.5 µg/mL (≈ 38.9 µM); in data set [8], 12.5 µg/mL (≈ 38.9 µM); in [9], > 200 µg/mL. For the same compound, the IC50 at 72 h in the data set “Cytotoxicity assay (MTT)” (setting [12]) turned out to be 75.7 µg/mL. For the same compound, in [10] (setting [11]), the “IC50/MIC = Selectivity (therapeutic) index” value is reported as 6.1.

For the compound `CC(C)C[C@H]1C(O)=C(C#N)C(=O)N1Cc1ccc(F)cc1` [Compound 12e, (S)-1-(4-fluorobenzyl)-4-hydroxy-5-isobutyl-2-oxo-2,5-dihydro-1H-pyrrole-3-carbonitrile], the MIC in data set [1], in data set [2], in [3], in data set [4], in data set [5] and in data set [6] was > 200 µg/mL each time. For the same compound, the MIC in data set [7], in data set [8] and in data set [9] was > 200 µg/mL in each case.

Turning to `CC(C)C[C@@H]1C(O)=C(C#N)C(=O)N1Cc1ccc(F)cc1` [Compound 12f, (R)-1-(4-fluorobenzyl)-4-hydroxy-5-isobutyl-2-oxo-2,5-dihydro-1H-pyrrole-3-carbonitrile], the MIC in [1], in data set [2], in data set [3], in data set [4], in data set [5] and in [6] was > 200 µg/mL in each case. Further, the MIC in [7], in data set [8] and in [9] was > 200 µg/mL throughout.

Take `CCC(C)[C@H]1C(O)=C(C#N)C(=O)N1Cc1ccccc1` (stereo partly drawn) [Compound 12a, (S)-1-benzyl-5-sec-butyl-4-hydroxy-2-oxo-2,5-dihydro-1H-pyrrole-3-carbonitrile]: the MIC in data set [1], in data set [2], in data set [3], in [4], in [5] and in data set [6] was > 200 µg/mL in each case. The MIC in [7], in data set [8] and in data set [9] was > 200 µg/mL throughout.

As to `N#CC1=C(O)[C@H](Cc2ccccc2)N(Cc2ccccc2)C1=O` [Compound 12c, (S)-1,5-dibenzyl-4-hydroxy-2-oxo-2,5-dihydro-1H-pyrrole-3-carbonitrile], the MIC in data set [1], in [2], in data set [3], in [4], in [5] and in data set [6] was > 200 µg/mL throughout. Moreover, the MIC in [7], in [8] and in [9] was > 200 µg/mL throughout.
